What follows are molecules tested against human APJ receptor (Homo sapiens (Human), UniProt P35414) (assay: [35S]GTPγS binding assay on membranes from CHO cells stably expressing human APJ receptor). Details: means of several independent experiments, read-out: Activity hAPJ SPA EC50 IP.
Assay type: biochemical
Experimental: The human APJ receptor was cloned by polymerase chain reaction and the gene encoding the receptor was subcloned in pFLAG-CMV™-3 expression vector (Sigma, Saint Louis, Mo. USA) in-house at Amgen. A GTPγS binding assay was performed on membranes prepared from CHO cells stably expressing human APJ receptor. The optimum experimental conditions for the concentrations of GDP, MgCl2, and NaCl in the assay buffer were initially determined. […] Incubation was at RT for 90 min and the microplate was read using a ViewLux™ ultra HTS Microplate Imager (PerkinElmer, Inc.). All the results presented are means of several independent experiments and analyzed by non-linear regression methods using the commercially available program Prism (GraphPad, San Diego, Calif.) providing the EC50 values detailed in Table 28.

Sequence of human APJ receptor (P35414 whole entry): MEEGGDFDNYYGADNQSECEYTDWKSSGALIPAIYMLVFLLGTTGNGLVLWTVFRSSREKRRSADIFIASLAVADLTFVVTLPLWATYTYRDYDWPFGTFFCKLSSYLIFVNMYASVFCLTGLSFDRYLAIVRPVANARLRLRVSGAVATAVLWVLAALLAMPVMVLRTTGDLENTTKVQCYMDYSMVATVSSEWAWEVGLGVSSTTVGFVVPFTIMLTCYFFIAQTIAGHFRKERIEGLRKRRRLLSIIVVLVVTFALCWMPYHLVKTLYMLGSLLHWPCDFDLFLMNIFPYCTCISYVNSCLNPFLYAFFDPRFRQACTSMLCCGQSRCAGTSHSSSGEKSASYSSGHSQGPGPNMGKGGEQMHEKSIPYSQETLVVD

Which EC50 does the source give for COc1cccc(OC)c1-n1c(NS(=O)(=O)[C@@H](C)[C@H](C)c2cnc(C)cn2)nnc1-c1ccccc1 [Example 25.0, (2S,3R)-N-(4-(2,6-dimethoxyphenyl)-5-phenyl-4H-1,2,4-triazol-3-yl)-3-(5-methyl-2-pyrazinyl)-2-butanesulfonamide] here?
Its EC50 is 1.3 nM.

With COc1ncnc(OC)c1-n1c(NS(=O)(=O)[C@@H](C)[C@H](C)c2cnc(C)cn2)nnc1-c1ccccc1 [Example 26.0, (2S,3R)-N-(4-(4,6-dimethoxy-5-pyrimidinyl)-5-phenyl-4H-1,2,4-triazol-3-yl)-3-(5-methyl-2-pyrazinyl)-2-butanesulfonamide] as the molecule, how does the EC50 read?
The EC50 was 5.2 nM.

How did the EC50 turn out when CO[C@H]1CCC[C@@H](OC)[C@@H]1n1c(NS(=O)(=O)[C@@H](C)[C@H](C)c2ncc(C)cn2)nnc1-c1ccccc1 [Example 33.0, (2S,3R)—N-(4-((1r,2R,6S)-2,6-Dimethoxycyclohexyl)-5-phenyl-4H-1,2,4-triazol-3-yl)-3-(5-methyl-2-pyrimidinyl)-2-butanesulfonamide] was run?
The EC50 was 230 nM.

With COc1ccnc(OC)c1-n1c(NS(=O)(=O)[C@@H](C)[C@H](OC)c2ncc(C)cn2)nnc1-c1ccccc1 [Example 36.0, (1R,2S,P)-N-(4-(2,4-dimethoxy-3-pyridinyl)-5-phenyl-4H-1,2,4-triazol-3-yl)-1-methoxy-1-(5-methyl-2-pyrimidinyl)-2-propanesulfonamide and (1R,2S,S)-N-(4-(2,4-dimethoxy-3-pyridinyl)-5-phenyl-4H-1,2,4-triazol-3-yl)-1-methoxy-1-(5-methyl-2-pyrimidinyl)-2-propanesulfonamide] as the molecule, how does the EC50 read?
Its EC50 is 1.9 nM.

How did the EC50 turn out when COc1cccc(OC)c1-n1c(NS(=O)(=O)[C@@H](C)[C@H](OC)c2ncc(C)cn2)nnc1-c1ccc2c(c1)OC(F)(F)O2 [Example 39.0, (1R,2S)-N-(5-(2,2-difluoro-1,3-benzodioxol-5-yl)-4-(2,6-dimethoxyphenyl)-4H-1,2,4-triazol-3-yl)-1-methoxy-1-(5-methyl-2-pyrimidinyl)-2-propanesulfonamide] was run?
The EC50 was 160 nM.

For Cc1cnc([C@@H](C)[C@H](C)S(=O)(=O)Nc2nnc(-c3ccccc3)n2-c2c(F)cccc2F)nc1 [Example 40.0, (2S,3R)-N-(4-(2,6-difluorophenyl)-5-phenyl-4H-1,2,4-triazol-3-yl)-3-(5-methyl-2-pyrimidinyl)-2-butanesulfonamide], which EC50 is on record?
The EC50 was 4.4 nM.

Which EC50 does the source give for CO[C@H](c1ncc(C)cn1)[C@H](C)S(=O)(=O)Nc1nnc(-c2ccccc2)n1-c1c(F)cccc1F [Example 41.0, (1R,2S)-N-(4-(2,6-difluorophenyl)-5-phenyl-4H-1,2,4-triazol-3-yl)-1-methoxy-1-(5-methyl-2-pyrimidinyl)-2-propanesulfonamide] here?
Its EC50 is 4.7 nM.

With Cc1cnc([C@H](OC(C)C)[C@H](C)S(=O)(=O)Nc2nnc(-c3ccccc3)n2-c2c(F)cccc2F)nc1 [Example 42.0, (1S,2S)-N-(4-(2,6-difluorophenyl)-5-phenyl-4H-1,2,4-triazol-3-yl)-1-(1-methylethoxy)-1-(5-methyl-2-pyrimidinyl)-2-propanesulfonamide] as the molecule, how does the EC50 read?
Its EC50 is 3.4 nM.

Which EC50 does the source give for Cc1cnc([C@@H](O[Si](C)(C)C(C)(C)C)[C@H](C)S(=O)(=O)Nc2nnc(-c3ccccc3)n2-c2c(F)cccc2F)nc1 [Example 44.0, (1R,2S)-1-((tert-butyl(dimethyl)silyl)oxy)-N-(4-(2,6-difluorophenyl)-5-phenyl-4H-1,2,4-triazol-3-yl)-1-(5-methyl-2-pyrimidinyl)-2-propanesulfonamide] here?
Its EC50 is 150 nM.

For Cc1cnc([C@@H](O)[C@H](C)S(=O)(=O)Nc2nnc(-c3ccccc3)n2-c2c(F)cccc2F)nc1 [Example 45.0], which EC50 is on record?
The EC50 was 34 nM.

With C[C@H](c1ncc(Cl)cn1)[C@H](C)S(=O)(=O)Nc1nnc(-c2ccccc2)n1-c1c(F)cccc1F [Example 46.0, (2S,3R)-3-(5-chloro-2-pyrimidinyl)-N-(4-(2,6-difluorophenyl)-5-phenyl-4H-1,2,4-triazol-3-yl)-2-butanesulfonamide] as the molecule, how does the EC50 read?
Its EC50 is 1.7 nM.

For C[C@H](c1ncc(C#N)cn1)[C@H](C)S(=O)(=O)Nc1nnc(-c2ccccc2)n1-c1c(F)cccc1F [Example 47.0, (2S,3R)-3-(5-cyano-2-pyrimidinyl)-N-(4-(2,6-difluorophenyl)-5-phenyl-4H-1,2,4-triazol-3-yl)-2-butanesulfonamide], which EC50 is on record?
The EC50 was 48 nM.

For COc1ncnc(OC)c1-n1c(NS(=O)(=O)[C@@H](C)[C@H](C)c2ncc(C)cn2)nnc1-c1cccc(C(F)(F)F)c1 [Example 48.0], which EC50 is on record?
The EC50 was 23 nM.

COc1ncnc(OC)c1-n1c(NS(=O)(=O)[C@@H](C)[C@H](C)c2ncc(C)cn2)nnc1-c1cccc(C#N)c1 [Example 50.0, (2S,3R)-N-(5-(3-cyanophenyl)-4-(4,6-dimethoxy-5-pyrimidinyl)-4H-1,2,4-triazol-3-yl)-3-(5-methyl-2-pyrimidinyl)-2-butanesulfonamide] was tested. Which EC50 did it give?
Its EC50 is 110 nM.

With COc1cccc(OC)c1-n1c(NS(=O)(=O)c2cncc(Br)c2)nnc1-c1ccccc1 [Example 60.0, 5-bromo-N-(4-(2,6-dimethoxyphenyl)-5-phenyl-4H-1,2,4-triazol-3-yl)-3-pyridinesulfonamide] as the molecule, how does the EC50 read?
Its EC50 is 350 nM.

For C[C@H](c1ncc(Cl)cn1)[C@H](C)S(=O)(=O)Nc1nnc(-c2ccccc2)n1C1CCOCC1 [Example 61.0, (2S,3R)-3-(5-chloro-2-pyrimidinyl)-N-(5-phenyl-4-(tetrahydro-2H-pyran-4-yl)-4H-1,2,4-triazol-3-yl)-2-butanesulfonamide], which EC50 is on record?
Its EC50 is 69 nM.

How did the EC50 turn out when CO[C@H](c1ncc(Cl)cn1)[C@H](C)S(=O)(=O)Nc1nnc(-c2ccccc2)n1C1CCOCC1 [Example 62.0, (1R,2S)-1-(5-chloro-2-pyrimidinyl)-1-methoxy-N-(5-phenyl-4-(tetrahydro-2H-pyran-4-yl)-4H-1,2,4-triazol-3-yl)-2-propanesulfonamide] was run?
Its EC50 is 74 nM.

With Cc1cnc([C@H](OC(C)C)[C@H](C)S(=O)(=O)Nc2nnc(-c3ccccc3)n2C2CCOCC2)nc1 [Example 63.0, (1S,2S)-1-(1-methylethoxy)-1-(5-methyl-2-pyrimidinyl)-N-(5-phenyl-4-(tetrahydro-2H-pyran-4-yl)-4H-1,2,4-triazol-3-yl)-2-propanesulfonamide] as the molecule, how does the EC50 read?
Its EC50 is 420 nM.

For COc1cccc(OC)c1-n1c(NS(=O)(=O)[C@@H](C)[C@H](OC)c2ncc(C)cn2)nnc1-c1ccc(C(C)(C)C)cc1 [Example 65.0, (1R,2S)—N-(5-(4-tert-Butylphenyl)-4-(2,6-dimethoxyphenyl)-4H-1,2,4-triazol-3-yl)-1-methoxy-1-(5-methyl-2-pyrimidinyl)-2-propanesulfonamide], which EC50 is on record?
The EC50 was 230 nM.

Which EC50 does the source give for COc1cccc(OC)c1-n1c(NS(=O)(=O)[C@@H](C)[C@H](OC)c2ncc(C)cn2)nnc1-c1ccc2c(c1)OCO2 [Example 66.0, (1R,2S)-N-(5-(1,3-benzodioxol-5-yl)-4-(2,6-dimethoxyphenyl)-4H-1,2,4-triazol-3-yl)-1-methoxy-1-(5-methyl-2-pyrimidinyl)-2-propanesulfonamide] here?
The EC50 was 0.73 nM.

COc1cccc(OC)c1-n1c(NS(=O)(=O)[C@@H](C)[C@H](OC)c2ncc(C)cn2)nnc1-c1ccccc1F [Example 67.0, (1R,2S)-N-(4-(2,6-dimethoxyphenyl)-5-(2-fluorophenyl)-4H-1,2,4-triazol-3-yl)-1-methoxy-1-(5-methyl-2-pyrimidinyl)-2-propanesulfonamide] was tested. Which EC50 did it give?
Its EC50 is 5.9 nM.

From US10906890B2, “Triazole phenyl compounds as agonists of the APJ receptor” (AMGEN INC., priority 2016, dated 2021)
